From patent EP0312283A2, “Di-or tripeptide renin inhibitors containing lactam conformational restrictions in ACHPA” (Merck & Co., Inc., priority 1987, dated 1989) come the findings set out here.

For this assay, the system named is human plasma renin. As to the kind of experiment: In vitro inhibition of human plasma renin (Boger et al. assay). The assay is classed as biochemical. Here is the method:
In vitro inhibition of human plasma renin was measured as described by Boger, et al., J. Med. Chem (1985) 28, 1779.
They were analyzed for purity by HPLC (30 minute gradient, 5% CH3CN-H2O to 95% CH3CN-H20 buffered with 0.1% H3PO4; C18 reverse phase column), and were analyzed for composition by C, H, and N combustion analysis. IC50 values were measured in vitro using the human plasma renin assay, as described by Boger et al. J. Med. Chem. (1985) 28, 1779.

Broadly, the IC50 is the concentration needed to halve the response being measured. A high value points to lower potency. For the substance “Boc-Phe-His-(ACHP-1-(2-Hydroxyethyl)-2-Pyrrolidinone [Example 3H]”, the IC50 is 7.7 nM.
